From patent publication US20230130243A1, “Method of Treating Urothelial Carcinoma and Other Genitourinary Malignancies Using N-(4-(6,7-dimethoxyquinolin-4-yloxy)phenyl)-N'-(4-fluorophenyl)cyclopropane-1,1-dicarboxamide” (The United States of America, as Represented by the …, priority 2016, published 2023)

Experiments:
[1] = system: peripheral blood mononuclear cells (PBMC); experiment: PBMC incubated with Cabozantinib, master regulator transcription factors of CD4+ T-cell polarization (FIGS. 1A and 1B); assay type: cell-based; settings: PBMCs, 3-4 days, 10% FBS-RPMI, Cabozantinib 10 uM vs DMSO control; three donors
Description: With reference to FIGS. 1A and 1B, peripheral blood mononuclear cells (PBMC) were obtained by centrifugation from buffy coat. PBMCs were incubated for 3-4 days in a 24 well plate with 10% FBS-RPMI medium with DMSO (control) or Cabozantinib (10 uM). Representative data obtained from three different donors were shown. […] Naïve CD4+ T-cells can polarize toward four CD4+ lineages.

[2] = system: relapsed/refractory metastatic urothelial carcinoma (mUC); settings: pretreated patients with relapsed/refractory mUC; cited from earlier work
[3] = system: metastatic urothelial carcinoma and other genitourinary malignancies; experiment: Phase I study of CaboNivo and CaboNivoIpi in patients; assay type: in vivo, human
Excerpt: This example provides results of a Phase I study of Cabozantinib (Cabo)+Nivolumab (Nivo) and (CaboNivo) Cabo+Nivolumab+Ipilimumab (Ipi) (CaboNivoIpi) in patients with metastatic urothelial carcinoma and other genitourinary malignancies.
The study provides results of a Phase I study of Cabozantinib+Nivolumab and Cabozantinib+Nivolumab+Ipilimumab in patients with metastatic urothelial carcinoma and other genitourinary malignancies. The purpose of the study was to determine the dose limiting toxicity (DLT) and recommended Phase II dose (RP2D) of the combination of CaboNivo and separately the combination of CaboNivolpi. In the study, DLT was defined as any event requiring a patient to discontinue study treatment. The DLT evaluation period was 4 weeks (Part 1) and 6 weeks (Part 2).
Secondary endpoints for the study included overall response rate (ORR) by RECIST v1.1; duration of response; progression free survival (PFS); and overall survival (OS). Exploratory Endpoints included the identification of immune subset biomarkers associated with PD-L1 and MET expression as well as correlation with efficacy.
Key eligibility criteria for the study included: • Histologically confirmed diagnostic of genitourinary (GU) malignancy; • Patients with metastatic GU malignancy who has disease progression on at least one standard therapy or there must be no standard treatment that prolongs survival; • A Karnofsky performance status of greater than or equal to 70 percent; and • One evaluable site of disease or bone disease by NaF PET/CT.

[4] = system: Treg (CD4+CD25hiFoxp3+) in CD4+ T-cells; experiment: Treg population in urothelial cancer patients treated with cabozantinib (FIGS. 1, 2); assay type: in vivo, human
Excerpt: Directly killing the tregs, and 2. Influencing treg polarization. See Apolo, A B, et al., J. Clin. Oncol. 2014; 32s:abstr 4501.
With reference to FIG. 2, it is believed that cabozantinib downregulates regulatory T cell population by acting on T cell polarization via inhibition of transcription factor Foxp3. The biologic rationale for combining cabozantinib and immune checkpoint blockade in mUC can be extrapolated from the results shown in FIGS. 2A and 2B. In FIG. 2A, patients with lower percent Treg (CD4+CD25hiFoxp3+) in CD4+ T-cells (<3.89%=median value) at baseline had better response compared with those who had higher percent Treg at baseline.

[5] = system: metastatic urothelial carcinoma (mUC); settings: mUC patients progressed despite prior platinum-containing chemotherapy; cited from earlier work

| Molecule | suppression of master regulator transcription factors of CD4+ T-cell polarization [1] | clinical activity [2] | patients with 3 dose reductions ([3]; 2 of the 18 patients with dose reduction) [%] | patients with 2 dose reductions ([3]; 6 of the 18 patients with dose reduction) [%] | patients with 1 dose reduction ([3]; 10 of the 18 patients with dose reduction) [%] | patients with ≥1 dose reduction of cabozantinib ([3]; 18 of 42 patients) [%] | median dose reduction ([3]; number of dose reductions per patient, 18 patients) | percent Treg among CD4+ T-cells ([4]; after treatment with Cabozantinib, FIG. 2B) | Treg population ([4]; urothelial cancer patients, FIG. 1, see Apolo et al. 2014) | clinical activity [5] |
| --- | --- | --- | --- | --- | --- | --- | --- | --- | --- | --- |
| COc1cc2nccc(Oc3ccc(NC(=O)C4(C(=O)Nc5ccc(F)cc5)CC4)cc3)c2cc1OC [Cabozantinib, N-(4-(6,7-dimethoxyquinolin-4-yloxy)phenyl)-N′-(4-fluorophenyl)cyclopropane-1,1-dicarboxamide] | suppresses only Foxp3 | clinical activity | 11 | 33 | 56 | 43 | 1 (range 1-3) | decreased significantly | decrease the Treg population | – |
| Nivolumab: IgG4 anti-PD-1 monoclonal antibody sold under the name OPDIVO | – | – | – | – | – | – | – | – | – | clinical activity |
